In patent US11388902B2, “Pesticidally active cyclopropyl methyl amide derivatives” (SYNGENTA PARTICIPATIONS AG, priority 2017, dated 2022):

Legend:
Type in all cases: in vivo
[1] = system: Spodoptera littoralis (Egyptian Cotton Leaf Worm); test: Spodoptera littoralis (Egyptian cotton leaf worm) cotton leaf disc test; conditions: foliar, 72 h, application rate of 200 ppm, L1 larvae, 3 days after infestation, in comparison to untreated samples, read-out: control (mortality, anti-feeding effect, or growth inhibition)
Procedure: Example B4: Spodoptera littoralis (Egyptian Cotton Leaf Worm)
Cotton leaf discs were placed onto agar in 24-well microtiter plates and sprayed with aqueous test solutions prepared from 10′000 ppm DMSO stock solutions. After drying the leaf discs were infested with five L1 larvae. The samples were assessed for mortality, anti-feeding effect, and growth inhibition in comparison to untreated samples 3 days after infestation. Control of Spodoptera littoralis by a test sample is given when at least one of the categories mortality, anti-feedant effect, and growth inhibition is higher than the untreated sample.

[2] = system: Tetranychus urticae (Two-Spotted Spider Mite); test: Tetranychus urticae (two-spotted spider mite) feeding/contact activity, bean leaf discs; conditions: foliar, 192 h, application rate of 200 ppm, 8 days after infestation, read-out: mortality on mixed population (mobile stages)
Procedure: Example B5: Tetranychus urticae (Two-Spotted Spider Mite):Feeding/Contact Activity
Bean leaf discs on agar in 24-well microtiter plates were sprayed with aqueous test solutions prepared from 10′000 ppm DMSO stock solutions. After drying the leaf discs were infested with a mite population of mixed ages. The samples were assessed for mortality on mixed population (mobile stages) 8 days after infestation.

[3] = system: Diabrotica balteata (Corn Root Worm); test: Diabrotica balteata (corn root worm) on sprayed maize sprouts; conditions: 96 h, application rate of 200 ppm, L2 larvae, 4 days after infestation, in comparison to untreated samples, read-out: effect in at least one of the two categories (mortality or growth inhibition)
Procedure: Example B1: Diabrotica balteata (Corn Root Worm)
Maize sprouts placed onto an agar layer in 24-well microtiter plates were treated with aqueous test solutions prepared from 10′000 ppm DMSO stock solutions by spraying. After drying, the plates were infested with L2 larvae (6 to 10 per well). The samples were assessed for mortality and growth inhibition in comparison to untreated samples 4 days after infestation.

[4] = system: Plutella xylostella (Diamond Back Moth); test: Plutella xylostella (diamond back moth) artificial diet test; conditions: 120 h, application rate of 200 ppm, L2 larvae, 5 days after infestation, in comparison to untreated samples, read-out: effect in at least one of the two categories (mortality or growth inhibition)
Procedure: Example B3: Plutella xylostella (Diamond Back Moth)
24-well microtiter plates with artificial diet were treated with aqueous test solutions prepared from 10′000 ppm DMSO stock solutions by pipetting. After drying, the plates were infested with L2 larvae (10 to 15 per well). The samples were assessed for mortality and growth inhibition in comparison to untreated samples 5 days after infestation.

[5] = system: Thrips tabaci (Onion Thrips); test: Thrips tabaci (onion thrips) feeding/contact activity, sunflower leaf discs; conditions: foliar, 144 h, application rate of 200 ppm, thrips population of mixed ages, 6 days after infestation
Procedure: Example B6: Thrips tabaci (Onion Thrips) Feeding/Contact Activity
Sunflower leaf discs were placed on agar in 24-well microtiter plates and sprayed with aqueous test solutions prepared from 10′000 ppm DMSO stock solutions. After drying the leaf discs were infested with a thrips population of mixed ages. The samples were assessed for mortality 6 days after infestation.

[6] = system: Myzus persicae (Green Peach Aphid); test: Myzus persicae (green peach aphid) sucrose solution feeding test; conditions: 120 h, test rate of 12 ppm, 5 days after infestation
From the text: Example B2: Myzus persicae (Green Peach Aphid)
Test compounds prepared from 10′000 ppm DMSO stock solutions were applied by pipette into 24-well microtiter plates and mixed with sucrose solution. The plates were closed with a stretched Parafilm. A plastic stencil with 24 holes was placed onto the plate and infested pea seedlings were placed directly on the Parafilm. The infested plate was closed with a gel blotting paper and another plastic stencil and then turned upside down. The samples were assessed for mortality 5 days after infestation.

Cc1cc(C2=NO[C@@](c3cc(Cl)c(F)c(Cl)c3)(C(F)(F)F)C2)ccc1C(=O)NCC1(C(N)=S)CC1 [Compound B01, N-[(1-carbamothioylcyclopropyl)methyl]-4-[(5S)-5-(3,5-dichloro-4-fluoro-phenyl)-5-(trifluoromethyl)-4H-isoxazol-3-yl]-2-methyl-benzamide]
≥ 80%: percent control (mortality, anti-feedant effect or growth inhibition) at 200 ppm [1] | mortality at 200 ppm [2] | percent effect (mortality or growth inhibition) at 200 ppm [3] | percent effect (mortality or growth inhibition) at 200 ppm [4] | mortality at 200 ppm [5] | mortality at 12 ppm [6]

Cc1cc(C2=NO[C@@](c3cc(Cl)c(F)c(Cl)c3)(C(F)(F)F)C2)ccc1C(=O)NCC1(C#N)CC1 [Compound A01, N-[(1-cyanocyclopropyl)methyl]-4-[(5S)-5-(3,5-dichloro-4-fluoro-phenyl)-5-(trifluoromethyl)-4H-isoxazol-3-yl]-2-methyl-benzamide]
≥ 80%: percent control (mortality, anti-feedant effect or growth inhibition) at 200 ppm [1] | mortality at 200 ppm [2] | percent effect (mortality or growth inhibition) at 200 ppm [3] | percent effect (mortality or growth inhibition) at 200 ppm [4] | mortality at 200 ppm [5] | mortality at 12 ppm [6]

N#CC1(CNC(=O)c2ccc(C3=NOC(c4cc(Cl)cc(Cl)c4)(C(F)(F)F)C3)cn2)CC1 (racemic) [Compound D01, N-[(1-cyanocyclopropyl)methyl]-5-[5-(3,5-dichlorophenyl)-5-(trifluoromethyl)-4H-isoxazol-3-yl]pyridine-2-carboxamide]
≥ 80%: percent effect (mortality or growth inhibition) at 200 ppm [3] | percent effect (mortality or growth inhibition) at 200 ppm [4] | mortality at 200 ppm [5]

CCOC(=O)N(CC1(C#N)CC1)C(=O)c1ccc(C2=NO[C@@](c3cc(Cl)c(F)c(Cl)c3)(C(F)(F)F)C2)cc1C [Compound F01, ethyl N-[(1-cyanocyclopropyl)methyl]-N-[4-[(5S)-5-(3,5-dichloro-4-fluoro-phenyl)-5-(trifluoromethyl)-4H-isoxazol-3-yl]-2-methyl-benzoyl]carbamate]
≥ 80%: percent control (mortality, anti-feedant effect or growth inhibition) at 200 ppm [1] | mortality at 200 ppm [2] | percent effect (mortality or growth inhibition) at 200 ppm [3] | percent effect (mortality or growth inhibition) at 200 ppm [4] | mortality at 200 ppm [5]

Cc1cc(C2=NO[C@@](c3cc(Cl)c(F)c(Cl)c3)(C(F)(F)F)C2)ccc1C(=O)NCC1(C(N)=O)CC1 [Compound C01, N-[(1-carbamoylcyclopropyl)methyl]-4-[(5S)-5-(3,5-dichloro-4-fluoro-phenyl)-5-(trifluoromethyl)-4H-isoxazol-3-yl]-2-methyl-benzamide]
≥ 80%: percent control (mortality, anti-feedant effect or growth inhibition) at 200 ppm [1] | mortality at 200 ppm [2] | percent effect (mortality or growth inhibition) at 200 ppm [3] | percent effect (mortality or growth inhibition) at 200 ppm [4] | mortality at 200 ppm [5] | mortality at 12 ppm [6]

Cc1cc(C2=NO[C@@](c3cc(Cl)c(F)c(Cl)c3)(C(F)(F)F)C2)ccc1C(=O)NC(C)C1(C#N)CC1 (stereo partly drawn) [Compound E01, N-[1-(1-cyanocyclopropyl)ethyl]-4-[(5S)-5-(3,5-dichloro-4-fluoro-phenyl)-5-(trifluoromethyl)-4H-isoxazol-3-yl]-2-methyl-benzamide]
≥ 80%: percent control (mortality, anti-feedant effect or growth inhibition) at 200 ppm [1] | percent effect (mortality or growth inhibition) at 200 ppm [4] | mortality at 200 ppm [5]

Cc1cc(C2=NOC(c3cc(Cl)cc(Cl)c3)(C(F)(F)F)C2)ncc1C(=O)NCC1(C#N)CC1 (racemic) [Compound D02, N-[(1-cyanocyclopropyl)methyl]-6-[5-(3,5-dichlorophenyl)-5-(trifluoromethyl)-4H-isoxazol-3-yl]-4-methyl-pyridine-3-carboxamide]
≥ 80%: percent control (mortality, anti-feedant effect or growth inhibition) at 200 ppm [1] | mortality at 200 ppm [2] | percent effect (mortality or growth inhibition) at 200 ppm [3] | percent effect (mortality or growth inhibition) at 200 ppm [4] | mortality at 200 ppm [5] | mortality at 12 ppm [6]
